# Data reported in article PMC9646841, “A bead-based GPCR phosphorylation immunoassay for high-throughput ligand profiling and GRK inhibitor screening” (Communications Biology, 2022).
# “And” between values parts separate entries of the source, which are not always exact repeats. Identical values can stand only once. Square brackets hold non-standard residues; d marks the D form. Peptide text beside a SMILES is read from it. Cha = N[C@@H](CC1CCCCC1)C(=O)O; dCha = N[C@H](CC1CCCCC1)C(=O)O
# What was measured:
# [1] = target: T1, C5a1 (Homo sapiens, UniProt P21730); experiment: Total C5a1 loading control (np-C5a1 / anti-HA); assay type: cell-based
# T1 construct: host or cells: Control-HEK293, ΔGRK2/3-HEK293, ΔGRK5/6-HEK293, stably expressing
# T1 sequence (P21730 1-350): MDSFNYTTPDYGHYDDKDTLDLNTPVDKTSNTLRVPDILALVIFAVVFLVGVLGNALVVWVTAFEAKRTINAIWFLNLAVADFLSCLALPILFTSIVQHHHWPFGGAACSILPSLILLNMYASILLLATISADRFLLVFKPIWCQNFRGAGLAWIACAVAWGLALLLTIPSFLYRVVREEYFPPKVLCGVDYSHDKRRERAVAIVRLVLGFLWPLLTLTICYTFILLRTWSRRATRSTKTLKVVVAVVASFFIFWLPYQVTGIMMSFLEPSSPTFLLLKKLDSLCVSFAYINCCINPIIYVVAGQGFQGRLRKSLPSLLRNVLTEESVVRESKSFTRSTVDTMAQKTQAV
# [2] = target: T1, C5a1; experiment: pS332/pS334-C5a1 7TM phosphorylation assay; assay type: cell-based
# [3] = Control-C5aR1-HEK293 run beside the ΔGRK2/3 block, C028 10 µM
# [4] = ΔGRK2/3-C5aR1-HEK293, C028 10 µM (concentration series)
compound,measurement,setting,value
"N=C(N)NCCC[C@@H](NC(=O)[C@H](CC1CCCCC1)NC(=O)[C@@H](CC1CCCCC1)NC(=O)[C@@H]1CCCN1C(=O)[C@H](CCCCN)NC(=O)[C@@H](N)Cc1ccccc1)C(=O)O [C028, FKP-(D-Cha)-Cha-r] (H-FKP[dCha][Cha][dR]-OH)","np signal, raw","[1]; C028 0.01 µM, Control-C5aR1-HEK293",1.7187 and 1.7849 and 1.2842 and 1.2491 and 1.8947
same,"np signal, raw","[1]; C028 0.01 µM, ΔGRK2/3-C5aR1-HEK293",1.3719 and 1.658 and 1.494 and 1.3769 and 1.8182
same,"np signal, raw","[1]; C028 0.1 µM, Control-C5aR1-HEK293",1.8405 and 1.7894 and 1.13 and 1.0755 and 1.6047
same,"np signal, raw","[1]; C028 0.1 µM, ΔGRK2/3-C5aR1-HEK293",1.6138 and 1.8688 and 1.3994 and 1.4066 and 1.6881
same,"np signal, raw","[1]; C028 0.1 µM, ΔGRK5/6-C5aR1-HEK293",1.983 and 1.7745 and 1.5114 and 1.8261 and 1.6189
same,"np signal, raw","[1]; C028 0.3 µM, ΔGRK5/6-C5aR1-HEK293",1.6298 and 1.4921 and 1.6333 and 1.6817 and 1.6758
same,"np signal, raw","[1]; C028 1 µM, ΔGRK2/3-C5aR1-HEK293",1.3996 and 1.4952 and 2.1996 and 1.4182 and 2.2245
same,"np signal, raw","[1]; C028 1 µM, ΔGRK5/6-C5aR1-HEK293",1.9501 and 1.5997 and 1.4175 and 1.1243 and 1.5682
same,"np signal, raw","[1]; C028 3 µM, Control-C5aR1-HEK293",1.9121 and 1.6861 and 1.569 and 1.3939 and 2.1397
same,"np signal, raw","[1]; C028 3 µM, ΔGRK2/3-C5aR1-HEK293",1.5651 and 1.596 and 2.1319 and 1.2489 and 1.5422
same,"np signal, raw","[1]; C028 3 µM, ΔGRK5/6-C5aR1-HEK293",1.6842 and 1.511 and 1.6612 and 1.9363 and 1.5067
same,"np signal, raw","[1]; C028 10 µM, Control-C5aR1-HEK293, concentration series",1.6592 and 1.6457 and 1.7245 and 1.2748 and 1.696
same,"np signal, raw","[1]; C028 10 µM, Control-C5aR1-HEK293, first 0/10 µM pair",1.6592 and 1.6457 and 1.3473 and 1.1686 and 1.879
same,"np signal, raw","[1]; C028 10 µM, Control-C5aR1-HEK293, last 0/10 µM pair of Control block",1.9885 and 1.4944 and 1.4087 and 1.155 and 1.5321
same,"np signal, raw","[1]; C028 10 µM, Control-C5aR1-HEK293 beside ΔGRK2/3 block",2.0332 and 1.1801 and 1.5046 and 1.4934 and 1.6943
same,"np signal, raw","[1]; C028 10 µM, Control-C5aR1-HEK293 beside ΔGRK5/6 block",1.9038 and 2.0072 and 1.4662 and 1.7694 and 1.271
same,"np signal, raw","[1]; C028 10 µM, ΔGRK2/3-C5aR1-HEK293, concentration series",1.5246 and 1.7106 and 1.3042 and 1.3389 and 1.7008
same,"np signal, raw","[1]; C028 10 µM, ΔGRK2/3-C5aR1-HEK293, first 0/10 µM pair",1.2045 and 1.6486 and 1.422 and 1.3225 and 1.7342
same,"np signal, raw","[1]; C028 10 µM, ΔGRK5/6-C5aR1-HEK293, concentration series",2.2585 and 1.8872 and 1.4472 and 1.4134 and 1.6269
same,"np signal, raw","[1]; C028 10 µM, ΔGRK5/6-C5aR1-HEK293, first 0/10 µM pair",2.1115 and 2.0551 and 1.5281 and 1.3721 and 1.3579
same,np (raw signal),"[1]; Control-C5aR1-HEK293, C028 0.01 µM, concentration series",1.9803 and 1.5907 and 1.3538 and 1.2438 and 1.436 and 1.5903 and 1.7448 and 1.269
same,np (raw signal),"[1]; Control-C5aR1-HEK293, C028 0.3 µM, concentration series",1.588 and 1.7265 and 1.5961 and 0.9789 and 1.4851 and 1.7215 and 1.957 and 1.5097
same,"np (total C5aR1), raw signal","[1]; Control-C5aR1-HEK293, C028 0.01 µM",1.3949 and 1.3266 and 1.5751 and 1.603 and 1.9857 and 2.1902
same,"np (total C5aR1), raw signal","[1]; Control-C5aR1-HEK293, C028 0.1 µM",1.088 and 1.5141 and 1.6432 and 1.3119 and 2.129 and 1.8032
same,"np (total C5aR1), raw signal","[1]; Control-C5aR1-HEK293, C028 0.3 µM",1.3568 and 1.8238 and 1.5485 and 1.2855 and 1.9306 and 1.5751
same,"np (total C5aR1), raw signal","[1]; Control-C5aR1-HEK293, C028 1 µM",1.4754 and 1.6232 and 1.785 and 1.3295 and 1.6944 and 2.063
same,"np (total C5aR1), raw signal","[1]; Control-C5aR1-HEK293, C028 3 µM",1.2425 and 1.4862 and 1.9242 and 1.5919 and 2.0564 and 1.6025
same,"np (total C5aR1), raw signal","[1]; Control-C5aR1-HEK293 beside ΔGRK5/6 series, C028 10 µM",2.3386 and 2.3729 and 1.6554 and 1.7709 and 1.3577 and 1.3562 and 1.5255
same,np (raw signal),[1]; [3],1.8085 and 2.0631 and 1.4603 and 1.3915 and 1.4955 and 1.1807
same,np (raw signal),"[1]; Control-C5aR1-HEK293 run beside the ΔGRK5/6 block, C028 10 µM",1.9033 and 1.7695 and 1.3647 and 1.1555 and 2.1969 and 1.68 and 1.7195 and 1.5597
same,np (raw signal),"[1]; ΔGRK2/3-C5aR1-HEK293, C028 0.01 µM, concentration series",1.9037 and 1.8736 and 1.6092 and 1.5411 and 1.8666 and 1.9049 and 1.8208 and 1.3708
same,np (raw signal),"[1]; ΔGRK2/3-C5aR1-HEK293, C028 0.1 µM, concentration series",1.8343 and 1.6381 and 1.9187 and 1.6055 and 2.1604 and 1.5161 and 1.9037 and 1.8736
same,np (raw signal),"[1]; ΔGRK2/3-C5aR1-HEK293, C028 0.3 µM, concentration series",1.6659 and 1.792 and 1.7372 and 1.7036 and 2.059 and 1.9288 and 1.8343 and 1.6381
same,np (raw signal),"[1]; ΔGRK2/3-C5aR1-HEK293, C028 1 µM, concentration series",1.7539 and 1.6924 and 1.7772 and 1.4498 and 2.0307 and 1.5417 and 1.6659 and 1.792
same,np (raw signal),"[1]; ΔGRK2/3-C5aR1-HEK293, C028 3 µM, concentration series",1.6846 and 1.3473 and 1.4287 and 1.3661 and 2.0103 and 1.5757 and 1.7539 and 1.6924
same,"np (total C5aR1), raw signal","[1]; ΔGRK2/3-C5aR1-HEK293, C028 0.01 µM",1.9989 and 2.1791 and 2.1472 and 1.695 and 1.8681 and 1.8947 and 1.79
same,"np (total C5aR1), raw signal","[1]; ΔGRK2/3-C5aR1-HEK293, C028 0.1 µM",2.1466 and 2.0776 and 2.1938 and 2.0797 and 1.633 and 1.3767 and 1.2578
same,"np (total C5aR1), raw signal","[1]; ΔGRK2/3-C5aR1-HEK293, C028 0.3 µM",1.9738 and 1.8316 and 2.0611 and 2.0567 and 1.8444 and 1.4691 and 1.6375
same,"np (total C5aR1), raw signal","[1]; ΔGRK2/3-C5aR1-HEK293, C028 1 µM",1.8294 and 2.1206 and 2.1815 and 1.9867 and 1.4524 and 1.8069 and 1.3881
same,"np (total C5aR1), raw signal","[1]; ΔGRK2/3-C5aR1-HEK293, C028 3 µM",1.9342 and 1.5491 and 2.0615 and 1.8761 and 1.3783 and 1.8045 and 1.3094
same,"np (total C5aR1), raw signal","[1]; ΔGRK2/3-C5aR1-HEK293, C028 10 µM (0/10 µM pair)",1.6776 and 1.597 and 2.0065 and 1.9839 and 1.7864 and 1.8111 and 1.5147
same,np (raw signal),[1]; [4],1.6617 and 1.8239 and 1.3136 and 1.3724 and 1.8559 and 1.6
same,"np (total C5aR1), raw signal",[1]; [4],2.0002 and 1.769 and 2.052 and 2.2047 and 1.6138 and 1.7275 and 1.9566
same,np (raw signal),"[1]; ΔGRK5/6-C5aR1-HEK293, C028 0.3 µM, concentration series",1.7318 and 1.8541 and 1.5067 and 1.2715 and 1.8493 and 2.0046 and 1.7672 and 1.7676
same,np (raw signal),"[1]; ΔGRK5/6-C5aR1-HEK293, C028 1 µM, concentration series",2.0252 and 1.7968 and 1.4934 and 1.2437 and 2.0647 and 1.7841 and 1.4601 and 1.5886
same,np (raw signal),"[1]; ΔGRK5/6-C5aR1-HEK293, C028 10 µM, first 0/10 µM column pair",1.7829 and 1.9246 and 1.5744 and 1.3841 and 1.8642 and 1.9552 and 1.5996 and 1.6914
same,"np (total C5aR1), raw signal","[1]; ΔGRK5/6-C5aR1-HEK293, C028 10 µM (0/10 µM pair)",1.7545 and 1.6551 and 1.4386 and 1.778 and 1.4304 and 1.6743 and 2.0075
same,"np (total C5aR1), raw signal","[1]; ΔGRK5/6-C5aR1-HEK293, C028 10 µM (concentration series)",1.8811 and 1.8348 and 1.6561 and 1.4006 and 1.0888 and 1.1737 and 1.1522
same,OD405 max pS332/pS334-C5a1,[2],1.06
same,OD405 min pS332/pS334-C5a1,[2],0.11
same,pS332/pS334 normalized,"[2]; Control-C5aR1-HEK293, C028 10 µM (concentration series)",95.44% and 132.42% and 80.61% and 80.15% and 121.12% and 109.12% and 102.49% and 106.48%
same,pS332/pS334 (raw signal),[2]; [3],0.7901 and 0.7373 and 0.8202 and 0.7545 and 1.029 and 1.2201
same,Emax,"[2]; Control-HEK293, read-out: Emax (% Control C028) pS332/pS334-C5a1",100%
same,EC50,"[2]; pEC50 pS332/pS334-C5a1, Control-HEK293",398 nM
same,EC50,"[2]; pEC50 pS332/pS334-C5a1, ΔGRK2/3-HEK293",501 nM
